# Strand notation (5' to 3'): a small letter for the sugar, then the base; units joined by * are phosphorothioate-linked, units joined directly phosphodiester-linked; [ ] holds rarer units or linkages, { } end groups; capitals alone tell only the bases. e = 2'-O-(2-methoxyethyl) (MOE); [5mC] = 5-methylcytosine; d = 2'-deoxy (DNA)
# Test system: human B7.2 mRNA
# Assay: Human B7.2 mRNA levels in THP-1 cells by quantitative real-time PCR (Example 27)
# Assay type: cell-based
# Design: concentration or dose not given beside the values
# Source text: In accordance with the present invention, an additional series of antisense compounds were designed to target different regions of the human B7.2 RNA, using published sequences (GenBank accession number U04343.1, incorporated herein as SEQ ID NO: 295, GenBank accession number BC040261.1, incorporated herein as SEQ ID NO: 296 and GenBank accession number NT—005543.12, a portion of which is incorporated herein as SEQ ID NO: 297). “Target site” indicates the first (5′-most) nucleotide number on the particular target sequence to which the compound binds. All compounds in Table 25 are chimeric oligonucleotides (“gapmers”) 20 nucleotides in length, composed of a central “gap” region consisting of ten 2′-deoxynucleotides, which is flanked on both sides (5′ and 3′ directions) by five-nucleotide “wings”. The wings are composed of 2′-methoxyethyl (2′-MOE)nucleotides. The internucleoside (backbone) linkages are phosphorothioate (P═S) throughout the oligonucleotide. All cytidine residues are 5-methylcytidines. The compounds were analyzed for their effect on human B7.2 mRNA levels in THP-1 cells by quantitative real-time PCR as described in other examples herein. Data are averages from three experiments. If present, “N.D.” indicates “no data”.
row,Substance,% INHIB (inhibition of human B7.2 mRNA levels)
1,323651 (antisense eT*eG*eA*e[5mC]*eA*dG*dT*dT*d[5mC]*dA*dG*dA*dA*dT*dT*e[5mC]*eA*eT*e[5mC]*eT) [compound 323651],64%
2,323652 (antisense eA*eG*e[5mC]*eA*e[5mC]*dT*dG*dA*d[5mC]*dA*dG*dT*dT*d[5mC]*dA*eG*eA*eA*eT*eT) [compound 323652],87%
3,323653 (antisense eT*eA*eG*e[5mC]*eA*dA*dG*d[5mC]*dA*d[5mC]*dT*dG*dA*d[5mC]*dA*eG*eT*eT*e[5mC]*eA) [compound 323653],96%
4,323654 (antisense eT*eG*eA*eA*eG*dT*dT*dA*dG*d[5mC]*dA*dA*dG*d[5mC]*dA*e[5mC]*eT*eG*eA*e[5mC]) [compound 323654],87%
5,323655 (antisense eT*eT*eG*eA*e[5mC]*dT*dG*dA*dA*dG*dT*dT*dA*dG*d[5mC]*eA*eA*eG*e[5mC]*eA) [compound 323655],65%
6,323656 (antisense e[5mC]*eT*eA*eT*eT*dT*d[5mC]*dA*dG*dG*dT*dT*dG*dA*d[5mC]*eT*eG*eA*eA*eG) [compound 323656],76%
7,323657 (antisense eT*e[5mC]*eT*eG*eT*dT*dA*dT*dA*dT*dT*dA*dG*dA*dA*eA*eT*eT*eG*eG) [compound 323657],43%
8,323658 (antisense eG*e[5mC]*eA*eG*eG*dT*d[5mC]*dA*dA*dA*dT*dT*dT*dA*dT*eG*eT*eA*e[5mC]*eA) [compound 323658],36%
9,323659 (antisense eG*eT*eA*eT*eA*dG*dA*dT*dG*dA*dG*d[5mC]*dA*dG*dG*eT*e[5mC]*eA*eA*eA) [compound 323659],56%
10,323660 (antisense eG*eG*eG*eT*eA*dA*d[5mC]*d[5mC]*dG*dT*dG*dT*dA*dT*dA*eG*eA*eT*eG*eA) [compound 323660],71%
11,323661 (antisense eA*eG*eG*eT*eT*d[5mC]*dT*dG*dG*dG*dT*dA*dA*d[5mC]*d[5mC]*eG*eT*eG*eT*eA) [compound 323661],68%
12,323662 (antisense eT*eA*eG*e[5mC]*eA*dA*dA*dA*d[5mC]*dA*d[5mC]*dT*d[5mC]*dA*dT*e[5mC]*eT*eT*e[5mC]*eT) [compound 323662],22%
13,323663 (antisense eG*eT*eT*e[5mC]*eT*dT*dA*dG*d[5mC]*dA*dA*dA*dA*d[5mC]*dA*e[5mC]*eT*e[5mC]*eA*eT) [compound 323663],23%
14,323664 (antisense eA*eT*eT*e[5mC]*eT*dT*dG*dG*dT*dT*d[5mC]*dT*dT*dA*dG*e[5mC]*eA*eA*eA*eA) [compound 323664],35%
15,323665 (antisense eG*eA*eT*eA*eG*dT*dT*dG*dA*dA*dT*dT*d[5mC]*dT*dT*eG*eG*eT*eT*e[5mC]) [compound 323665],43%
16,323666 (antisense eA*e[5mC]*e[5mC]*eA*eT*d[5mC]*dA*dT*dA*d[5mC]*dT*d[5mC]*dG*dA*dT*eA*eG*eT*eT*eG) [compound 323666],71%
17,323667 (antisense eA*eT*e[5mC]*eT*eT*dG*dA*dG*dA*dT*dT*dT*d[5mC]*dT*dG*e[5mC]*eA*eT*eA*eA) [compound 323667],52%
18,323668 (antisense eA*e[5mC]*eA*eT*eT*dA*dT*d[5mC]*dT*dT*dG*dA*dG*dA*dT*eT*eT*e[5mC]*eT*eG) [compound 323668],39%
19,323669 (antisense e[5mC]*eG*eT*eA*e[5mC]*dA*dG*dT*dT*d[5mC]*dT*dG*dT*dG*dA*e[5mC]*eA*eT*eT*eA) [compound 323669],68%
